Like-named read-outs stand apart in the source and are kept apart here. Ends that are not written are not given here.
Assays:
Type in all cases: cell-based
Cladosporium sp. = system: Cladosporium sp.
Protocol: (§1) The synthetic peptides (see section 2.11) were also screened for antifungal activity against Candida albicans (ATCC 10231), Saccharomyces cerevisiae, Rhodotorula sp., Aureobasidium pullulans and Cladosporium sp. The antifungal assay was performed as described previously. Briefly, fungal spores were dissolved in potato dextrose broth (Difco, Lawrence, KS, USA) to a concentration of 4 × 10^5 spores/ml. The spores (50 μl) were inoculated on 96-well Nunclon^TM microtiter plates containing the synthetic peptides (50 μl) dissolved in MQ-H2O. […] MIC was defined as the lowest concentration of peptide giving no visible fungal growth. The negative (growth) control contained medium and fungal solution.
(§2) ACN-phases and SPE eluates were tested with two-fold serial dilutions ranging from 5.0 to 0.005 mg/ml (5.0, 2.5, 1.25, 0.63, 0.31, 0.16, 0.08, 0.04, 0.02, 0.01, 0.005 mg/ml) whereas HPLC-fractions were tested undiluted for antibacterial activity. Pure, native peptides and synthetic peptides (described in section 2.11) were tested for antimicrobial activity in concentrations ranging from 100 to 0.1 μM in two-fold serial dilutions (100, 50, 25, 12.5, 6.25, 3.13, 1.56, 0.78, 0.39, 0.20, 0.10 μM). Antimicrobial assays involving natural peptides (i.e. fractionated natural material) were run only once due to limited quantities, whereas all other assays were run in triplicates.

[1] = system: Candida albicans (ATCC 10231)
Protocol: as §1, §2

Saccharomyces cerevisiae = system: Saccharomyces cerevisiae
Protocol: as §1, §2

Rhodotorula sp. = system: Rhodotorula sp.
Protocol: as §1, §2

Aureobasidium pullulans = system: Aureobasidium pullulans
Protocol: as §1, §2

[2] = potato dextrose broth, 24 h at room temperature, visual, no visible fungal growth, value of Table 2, triplicates

Sequence: WGHKLRSSWNKVKHAVKKGAGYASGACRVLGH [EeCentrocin 2 HC]
- MIC raw data Cladosporium sp. (Cladosporium sp.; parallel 1 of three): 12.5 µM
- MIC raw data Cladosporium sp. (Cladosporium sp.; parallel 2 of three): 12.5 µM
- MIC raw data Cladosporium sp. (Cladosporium sp.; parallel 3 of three): 12.5 µM
- MIC Cladosporium sp. (Cladosporium sp.; [2]): 12.5 µM
- MIC raw data C. albicans ([1]; parallel 1 of three): 50 µM
- MIC raw data C. albicans ([1]; parallel 2 of three): 50 µM
- MIC raw data C. albicans ([1]; parallel 3 of three): 25 µM
- MIC C. albicans [1, 2]: 50 µM
- MIC raw data S. cerevisiae (Saccharomyces cerevisiae; parallel 1 of three): 12.5 µM
- MIC raw data S. cerevisiae (Saccharomyces cerevisiae; parallel 2 of three): 12.5 µM
- MIC raw data S. cerevisiae (Saccharomyces cerevisiae; parallel 3 of three): 12.5 µM
- MIC S. cerevisiae (Saccharomyces cerevisiae; [2]): 12.5 µM
- MIC raw data Rhodotorula sp. (Rhodotorula sp.; parallel 1 of three): 3.13 µM
- MIC raw data Rhodotorula sp. (Rhodotorula sp.; parallel 2 of three): 3.13 µM
- MIC raw data Rhodotorula sp. (Rhodotorula sp.; parallel 3 of three): 3.13 µM
- MIC Rhodotorula sp. (Rhodotorula sp.; [2]): 3.13 µM
- MIC raw data A. pullulans (Aureobasidium pullulans; parallel 1 of three): 25 µM
- MIC raw data A. pullulans (Aureobasidium pullulans; parallel 2 of three): 25 µM
- MIC raw data A. pullulans (Aureobasidium pullulans; parallel 3 of three): 25 µM
- MIC A. pullulans (Aureobasidium pullulans; [2]): 25 µM

From PMC4805251, “Novel Antimicrobial Peptides EeCentrocins 1, 2 and EeStrongylocin 2 from the Edible Sea Urchin Echinus esculentus Have 6-Br-Trp Post-Translational Modifications” (PLoS ONE, 2016)
